Source: paper PMC12431657, “Discovery and mechanistic insights of dibenzoylmethane as a broad spectrum inhibitor of coronavirus” (PLOS Pathogens, 2025)
“And” between values parts separate entries of the source, which are not always exact repeats. Equal values may be shown once. Read-outs that look alike come from different tables or passages of the source.

How the values were obtained:
HCoV-OC43 [1] = assay: Immunoplaque assay, viral titres of organs and tissues of infected mice; format: in vivo, BALB/c suckling mice
Protocol: Next, we characterized the therapeutic efficacy of the DBM in vivo. In this experiment, randomized 5–6-day-old suckling BALB/c mice were orally treated with DBM at concentrations of 500, 200, and 100 mpk 2 hours after being intranasally challenged with HCoV-OC43. Menstruum and VV116 were used as negative and positive controls, respectively. All the mice were sacrificed on Day 5 for organ and sample collection (Fig 4A). The body weight changes of the mice were continuously monitored during the trial. Infection with HCoV-OC43 led to body weight loss in the vehicle-treated mice on Day 5 (Fig 4B). […] The number of viral RNA copies from the brain, spinal cord, lungs, and kidneys were analysed via qRT-PCR, which targeted the HCoV-OC43 nucleocapsid gene sequence. On Day 5, the number of viral RNA copies in the vehicle-treated group reached approximately 10^12 copies in the brain, 10^9 copies in the spinal cord, 10^8 copies in the lungs, and 10^6 copies in the kidney (Fig 4C). In the mice treated with DBM at 500 mpk, the number of viral RNA copies within these organs and tissues was reduced by 1–3 logs compared with the vehicle-treated group. […] Sections of mouse brains, spinal cords, lungs, and kidneys were subjected to immunofluorescence staining with antibodies targeting HCoV-OC43 nucleocapsid proteins.
Fig 4 In vivo antiviral efficacy of DBM in 5-day-old BALB/c suckling mice infected with HCoV-OC43. A) Schematic of the experimental design for evaluating DBM in suckling mice. Each group consisted of 5-6 suckling mice. The schematic was created by the authors using Adobe Illustrator 2022. B) Body weight changes of mice during the experiment. Body weights were recorded daily and all mice were euthanised on the fifth day after infection. C) Viral RNA copies in the brains, spinal cords, lungs, and kidneys of mice collected on Day 5. After grinding and centrifuging the samples with DMEM, viral copies from the supernatants were tested by qRT-PCR. D) Viral titres in homogenised organs and tissues collected from mice on Day 5. E) Immunofluorescence staining of brain and lung sections from mice treated with different regimens. HCoV-OC43 nucleocapsid proteins were detected by immunofluorescence (green). Cell nuclei were stained with DAPI (blue). Data were statistically analyzed with Student’s T test. *: p ≤ 0.05, **: p ≤ 0.01, ***: p ≤ 0.001, ****: p ≤ 0.0001; ns, not significant. The experiments were repeated three times independently with similar results. […] No numeric values are printed in any panel, and nothing was read off the bars, points or curves.
RD cells were preseeded onto 24-well plates and incubated at 37 °C for 24 hours until they reached 90% confluence. The supernatants from the homogenized organs and tissues were serially diluted 10-fold in DMEM. Subsequently, 50 μL of each dilution was added to the wells. Following a 1-hour incubation at 37 °C, the inoculum was removed, and 200 μL of overlay medium (DMEM containing 2% FBS and 1.5% carboxymethyl cellulose) was added to the wells. Four days postinfection, the cells were fixed with 4% paraformaldehyde for 2 hours, followed by three washes with phosphate-buffered saline (PBS). The fixed cells were then permeabilized with 0.5% Triton X-100 for 30 minutes and blocked with 5% bovine serum albumin (BSA) for 30 minutes at room temperature. The cells were subsequently incubated with anti-HCoV-OC43 nucleocapsid protein rabbit serum (ABclonal, SA00001–2) as the primary antibody and HRP-conjugated anti-rabbit IgG (Proteintech) as the secondary antibody, followed by staining with a DAB staining kit (TIANGEN, PA110).

HCoV-OC43 [2] = assay: Viral binding assay; format: cell-based; details: MOI of 50, on ice 2 hours
Protocol: To obtain further insight into the stage at which DBM inhibits the replication of HCoV-OC43 and other HCoVs, RD cells were incubated with compounds, including DBM, remdesivir (RDV), and chloroquine (CQ), at different stages of viral infection. Viral RNA from the supernatant was extracted and quantitatively analysed via qRT-PCR. […] For the viral binding assay, cells were cultured in the presence or absence of DBM at different concentrations for 1 hour before being infected with HCoV-OC43 at an MOI of 50, and then were placed on ice for 2 hours for the viral particles to bind to the membrane of the host cells, followed by washing with PBS. […] In addition to binding to receptors from host cells, the spike proteins of HCoV-OC43 could also trigger membrane fusion when HCoV-OC43 spike plasmid-transfected 293T cells were seeded together with RD cells as target cells, and the addition of DBM had no effect on this process (S5C Fig). […] To determine whether DBM influences viral release, we quantified viral RNA both intracellularly and in the supernatant.
The cells were seeded onto 24-well plates and incubated overnight at 37 °C. […] The cells were washed three times with PBS before total RNA was extracted and analysed by qRT-PCR as previously described.

caspase-6 [3] = format: cell-based
caspase-6 [4] = biological target: T1, caspase-6 (Homo sapiens, UniProt P55212); format: cell-based
T1 construct: endogenous in cells
T1 sequence (P55212 24-293): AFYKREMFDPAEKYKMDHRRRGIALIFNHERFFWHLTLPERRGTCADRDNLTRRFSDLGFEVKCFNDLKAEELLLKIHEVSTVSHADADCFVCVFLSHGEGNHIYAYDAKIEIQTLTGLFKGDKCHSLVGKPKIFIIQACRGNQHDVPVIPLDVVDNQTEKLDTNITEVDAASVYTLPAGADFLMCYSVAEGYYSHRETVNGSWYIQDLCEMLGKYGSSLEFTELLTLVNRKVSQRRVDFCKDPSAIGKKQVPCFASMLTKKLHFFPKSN

in vivo = details: Sprague-Dawley, rat, po, 200 mg/kg

## O=C(CC(=O)c1ccccc1)c1ccccc1 [DBM, dibenzoylmethane]
HCoV-OC43 [1]; Brain, group G3 DIBEN100, individual mice
  Viral load in tissue (Fig4D): 2.4E+06 and 2.9E+06 and 1.6E+06 and 1.9E+06 and 2.5E+06 and 2.3E+06
HCoV-OC43 [1]; Brain, group G4 DIBEN200, individual mice
  Viral load in tissue (Fig4D): 2.4E+05 and 2.9E+05 and 1.6E+05 and 2.0E+05 and 2.5E+05
HCoV-OC43 [1]; Brain, group G5 DIBEN500, individual mice
  Viral load in tissue (Fig4D): 5.0E+01 and 0.0E+00 and 3.1E+03
HCoV-OC43 [1]; DBM 500 mpk
  viral titres of the organs and tissues: led to a reduction in viral loads
HCoV-OC43 [1]; Kidney, group G3 DIBEN100, individual mice
  Viral load in tissue (Fig4D): 229.9 and 104.0 and 219.4 and 123.5 and 219.8 and 790.8
HCoV-OC43 [1]; Kidney, group G4 DIBEN200, individual mice
  Viral load in tissue (Fig4D): 0.0
HCoV-OC43 [1]; Kidney, group G5 DIBEN500, individual mice
  Viral load in tissue (Fig4D): 84.6 and 0.0
HCoV-OC43 [1]; Lung, group G3 DIBEN100, individual mice
  Viral load in tissue (Fig4D): 0.0 and 160.4 and 76.7 and 2219.2 and 1455.2
HCoV-OC43 [1]; Lung, group G4 DIBEN200, individual mice
  Viral load in tissue (Fig4D): 275.5 and 0.0 and 394.7
HCoV-OC43 [1]; Lung, group G5 DIBEN500, individual mice
  Viral load in tissue (Fig4D): 0.0 and 290.3
HCoV-OC43 [1]; Spinal Cord, group G3 DIBEN100, individual mice
  Viral load in tissue (Fig4D): 1299.4 and 4131.1 and 125.4 and 477.6 and 568.4 and 1615.1
HCoV-OC43 [1]; Spinal Cord, group G4 DIBEN200, individual mice
  Viral load in tissue (Fig4D): 7747.0 and 4670.7 and 4797.6 and 4510.0 and 4954.8
HCoV-OC43 [1]; Spinal Cord, group G5 DIBEN500, individual mice
  Viral load in tissue (Fig4D): 0.0 and 113.9
HCoV-OC43 [2]
  viral binding: did not interfere
caspase-6 [3]
  Caspase-6/CASP6 level relative to DMSO (Fig5I): 75.9 and 67.7 and 60.2 and 63.8
  relative level of CASP6 mRNA: decreased
caspase-6 [4]
  activity of caspase-6 in treated cells: decrease in the activity of caspase-6
caspase-6 [4]; time point 0, replicates
  Caspase-6 activity (Fig5J): 8.2 and 8.1 and 9.0
caspase-6 [4]; time point 2, replicates
  Caspase-6 activity (Fig5J): 11.9 and 12.2 and 11.5
caspase-6 [4]; time point 4, replicates
  Caspase-6 activity (Fig5J): 16.7 and 15.6 and 16.4
caspase-6 [4]; time point 6, replicates
  Caspase-6 activity (Fig5J): 12.2 and 13.5 and 13.6
caspase-6 [4]; time point 8, replicates
  Caspase-6 activity (Fig5J): 13.0 and 12.4 and 9.9
In vivo
  AUC(0-t): 34300 ng·h/mL
  Cmax: 4760 ng/mL
  half-life: 2.91 h
